Experimental data published in patent publication US20200121645A1, “COMPOSITION FOR PREVENTING OR TREATING EGFR-MUTANT NON-SMALL CELL LUNG CANCER” (THE ASAN FOUNDATION, priority 2018, published 2020).

Tests used:
[1] = system: EGFR-WT NSCLCs (A549 and H1299); test: Apoptotic cell death by Annexin V/PI staining and flow cytometry; format: cell-based; settings: 24 h treatment
Procedure: (§1) Apoptotic cell death was detected using an Annexin-V/FITC assay. Cells were harvested by trypsinization, washed with PBS, and resuspended in Annexin-V binding buffer (10 mM HEPES, pH 7.4, 140 mM NaCl, 2.5 mM CaCl2) containing Annexin-V FITC and propidium iodide. Stained cells were quantified and analyzed on a flow cytometer (BeckmanCoulter, Brea, Calif., USA).

[2] = system: EGFR-mutant NSCLCs (PC9 and H1975); test: as above; format: cell-based; settings: for apoptotic cell death: EGFR-mutant NSCLCs, 24 h treatment; for rescue from glucose deprivation-induced apoptosis: glucose-free medium, 24 h, SP600125 15 μM
Procedure: as §1

[3] = system: PC-9/GR and PC-9/ER cells; test: Apoptotic cell death by Annexin V/PI staining and flow cytometry in EGFR-TKI-resistant cells; format: cell-based; settings: PC-9/GR and PC-9/ER cells (T790M), 24 h
Procedure: as §1

[4] = system: PC9 and H1975 tumor cell xenografts; test: Xenograft studies, tumor volume; format: in vivo, SCID mice; settings: 2DG 500 mg/kg, intraperitoneal, 5 days a week for 2 weeks; compared with EGFR-WT (A549) xenografts
Procedure: Female severe combined immunodeficiency (SCID) mice were purchased from Charles River Laboratories. All experimental procedures were approved by the Institutional Animal Care and Use Committee of Asan Institute for Life Sciences (protocol 2015-14-241). For each animal, 2×10^6 cells mixed with Matrigel (BD Biosciences) were injected into the flank. Five mice per group were treated when the tumor volumes reached 50 to 100 mm^3 with anisomycin (5 mg/kg, intratumoral, 5 days a week) or 2-deoxy-D-glucose (2DG) 500 mg/kg, intraperitoneal, 5 days a week) for 2 weeks. The length (L) and width (W) of each tumor were measured using calipers, and the tumor volume (TV) was calculated as TV=(L×W^2)/2. To evaluate EGFR-related signaling in xenograft tumors, tumors were harvested after 3 days of drug treatment, lysed, and analyzed with Western blotting.

[5] = system: EGFR in EGFR-mutant NSCLCs; test: Western blot of EGFR levels, EGFR signaling and PARP/caspase-3 cleavage; format: cell-based; settings: for EGFR levels / EGFR signaling (AKT and ERK phosphorylation) / PARP and caspase-3 cleavage (apoptosis markers): EGFR-mutant NSCLCs, immunoblot
Procedure: (§2) Cells were lysed in RIPA lysis buffer containing protease inhibitor cocktail (Thermo Scientific, Waltham, Mass., USA); lysate concentrations were assayed using a BCA assay (Thermo Scientific). Equal amounts of lysates were mixed with Laemmli loading dye and boiled for 10 minutes. Lysates were subjected to SDS-PAGE, and separated proteins were transferred to PVDF membranes (EMD Millipore, Billerica, Mass., USA). Membranes were blocked in Tris-buffered saline (TBS) containing 5% nonfat dry milk and 0.1% Tween 20 (TBS-T) prior to overnight incubation with primary antibody at 4° C. After washing with TBS-T, blots were exposed to appropriate horseradish peroxidase-conjugated secondary antibodies for 1 hour. Proteins-antibody complexes were visualized on Kodak X-ray film using an enhanced chemiluminescence (ECL) detection system (Thermo Scientific, Waltham, Mass., USA).

[6] = system: PC-9/GR and PC-9/ER cells; test: Western blot of JNK, EGFR signaling and apoptosis markers in EGFR-TKI-resistant cells; format: cell-based; settings: 24 h
Procedure: as §2

[7] = system: PC9 cells; test: TCA metabolite pools by LC-MS/MS; format: cell-based; settings: 2DG 10 mM or BPTES 10 μM
Procedure: Cells were grown to ˜60% confluence in growth media (RPMI1640, 10% FBS) on 10-cm dishes. After 24 hours, cells were harvested using 1.4 mL of cold methanol/H2O (80/20, v/v) after sequential PBS and H2O washes, and lysed; 100 μL of 5 μM internal standard was added. Metabolites were liquid-liquid extracted from the aqueous phase after adding chloroform. The aqueous phase was dried via vacuum centrifugation, and the sample was reconstituted with 50 μL of 50% methanol prior to LC/MS-MS analysis. The LC/MS-MS system was equipped with an Agilent 1290 HPLC (Agilent Technologies, Santa Clara, Calif., USA), Qtrap 5500 (ABSciex, Concord, Ontario, Canada), and reverse phase column (Synergi fusion RP 50×2 mm). A 3 μL volume was injected into the LC/MS-MS system and ionized with a turbo spray ionization source. Multiple reaction monitoring was used in negative ion mode, and the extracted ion chromatogram (EIC), corresponding to the specific transition for each metabolite was used for quantitation. The area under the curve of each EIC was normalized to that of the internal standard EIC. The peak area ratio of each metabolite to the internal standard was normalized using protein amount in a sample, and then was used for relative comparison.

[8] = system: EGFR-mutant NSCLCs; test: ROS quantification (DCFDA and MitoSox Red); format: cell-based; settings: 2DG 10 mM or rotenone 5 μM, 24 h
Procedure: To determine cytoplasmic ROS, cells were incubated with 2′,7′-dichlorodihydrofluorescein diacetate (DCFDA, 5 μM; Invitrogen, Carlsbad, Calif., USA) for 30 minutes. Excess DCFDA was removed by washing cells twice with PBS at room temperature; labeled cells were trypsinized, rinsed, and resuspended in PBS. The oxidation of DCFDA to the highly fluorescent 2′,7′-dichloro-fluorescein (DCF), which is proportionate to ROS generation, was analyzed by flow cytometry. To analyze mitochondrial ROS, the cells were then incubated with 5 μM MitoSOX™ reagent (Thermo Scientific, Waltham, Mass., USA) for 10 minutes at 37° C. and trypsinized, washed with PBS, and then resuspended in 200 μL of PBS. Stained cells were then quantified and analyzed on a flow cytometer (BeckmanCoulter, Brea, Calif., USA). Excitation wavelength was 510 nm, and emission wavelength was 580 nm.

[9] = system: EGFR-mutant NSCLCs; test: Autophagy: LC3-II immunoblot and GFP-LC3 puncta; format: cell-based; settings: 2DG 10 mM or anisomycin 5 μM, 24 h
Procedure: as §2

[10] = system: EGFR; test: EGFR transcriptional level; format: cell-based
Procedure: Total RNA was extracted using TRIzol (Invitrogen, Carlsbad, Calif., USA). cDNA was synthesized from 2 μg of total RNA, using oligo-dT and MMLV HP reverse transcriptase (Epicentre, Madison, Wis., USA) according to the manufacturer's instruction. qRT-PCR was performed on an AriaMax Real-Time PCR instrument (Agilent Technologies, Santa Clara, Calif., USA) using the SYBR detection protocol. cDNA was calculated by the comparative Ct method, with 18S ribosomal RNA as a control. PCR reactions were performed in triplicates.

[11] = system: pentose phosphate pathway; test: NADP+/NADPH ratios; format: cell-based; settings: data not shown
[12] = system: IGF1R and MET in EGFR-mutant NSCLCs; test: Western blot of other receptor tyrosine kinases; format: cell-based; settings: 2DG 10 mM, 24 h
Procedure: as §2

[13] = system: JNK in EGFR-mutant NSCLCs; test: Western blot for JNK and P-JNK; format: cell-based; settings: for JNK activation (P-JNK): EGFR-mutant NSCLCs, immunoblot
Procedure: as §2

[14] = system: PC9 cells; test: Quantitation of intracellular ATP; format: cell-based; settings: MPYR or AKG 7 mM, 24 h
Procedure: Intracellular ATP concentrations were measured using an ATP Colorimetric/Fluorometric Assay Kit (Biovision Incorporated, Milpitas, Calif., USA) according to the manufacturer's instructions. Briefly, cells were lysed in […] of ATP assay buffer; 50 μL of supernatants were collected and added to a 96-well plate. To each well, 50 μL of ATP assay buffer containing ATP probe, ATP converter, and developer were added. Absorbance was measured at 570 nm.

O=CC[C@@H](O)[C@H](O)[C@H](O)CO [2DG, 2-deoxy-D-glucose]
apoptotic cell death [1]: only in EGFR-mutant NSCLCs | apoptotic cell death [2]: promoted apoptosis | apoptosis [3]: significant induction of apoptosis | tumor growth of xenografts [4]: robustly diminished the growth | EGFR levels [5]: robust reduction of EGFR levels | EGFR signaling (AKT and ERK phosphorylation) [5]: inhibition of EGFR signaling | PARP and caspase-3 cleavage (apoptosis markers) [5]: leading to apoptosis | EGFR levels upon ATG7 knockdown ([5]; cells expressing ATG7 shRNAs, 2DG 10 mM or anisomycin 5 μM, 24 h): did not reduce EGFR levels | JNK activation ([6]; 2DG 10 mM): markedly activated JNK | EGFR level, AKT and ERK phosphorylation, PARP and caspase-3 cleavage [6]: EGFR level reduction, AKT and ERK phosphorylation inhibition, and PARP and caspase-3 cleavage | levels of TCA cycle intermediates [7]: significantly decreased | cytoplasmic and mitochondrial ROS levels [8]: significant increases | LC3-II levels [9]: significant increase in LC3-II levels | number of GFP-LC3 puncta ([9]; PC9 cells expressing GFP-LC3): profoundly increased | EGFR transcriptional level [10]: no significant effect | NADP+/NADPH ratios [11]: no significant effect | IGF1R phosphorylation [12]: significantly decreased | MET phosphorylation [12]: marginally decreased | total form of IGF1R and MET [12]: did not change

O=C(Cc1ccccc1)Nc1nnc(CCSCCc2nnc(NC(=O)Cc3ccccc3)s2)s1 [BPTES]
EGFR signaling (AKT and ERK phosphorylation) [5]: had no effect on EGFR signaling | levels of TCA cycle intermediates [7]: no significant inhibitory effect

OO [H2O2, hydrogen peroxide]
apoptotic cell death [2]: activated apoptosis in EGFR-mutant NSCLCs in a dose-dependent manner | EGFR levels [5]: markedly reduced the EGFR levels | EGFR signaling (AKT and ERK phosphorylation) [5]: inhibited the AKT and ERK phosphorylation | PARP and caspase-3 cleavage (apoptosis markers) [5]: cleaved the PARP and caspase-3 in a dose-dependent manner | JNK activation (P-JNK) [13]: activated JNK in a dose-dependent manner

CC(=O)N[C@@H](CS)C(=O)O [NAC, N-acetyl-L-cysteine]
rescue from 2DG treatment-induced apoptotic cell death ([2]; 2DG 10 mM, MPYR or AKG 7 mM, NAC 4 mM): significantly rescued cell death | rescue from anisomycin-induced cell death ([2]; anisomycin 24 h in absence or presence of NAC (FIG. 10a)): did not rescue | rescue from glucose deprivation-induced apoptosis ([2]; MPYR or AKG 7 mM, NAC 4 mM): significantly rescued cell death | rescue from rotenone-mediated apoptosis ([2]; rotenone 5 μM, methyl-pyruvate or NAC 4 mM): significantly rescued cell death | EGFR levels and AKT and ERK phosphorylation following glucose deprivation, 2DG, or rotenone treatment ([5]; NAC 4 mM, 24 h): significant recovery | PARP and caspase-3 cleavage upon glucose deprivation, 2DG, or rotenone treatment ([5]; NAC 4 mM, 24 h): significantly inhibited | recovery of anisomycin-decreased EGFR signaling or EGFR levels ([5]; anisomycin with NAC (FIG. 10b)): could not recover | JNK activation induced by glucose deprivation, 2DG, or rotenone treatment ([13]; NAC 4 mM, 24 h): completely inhibited | inhibition of anisomycin-induced JNK activation ([13]; anisomycin with NAC (FIG. 10c)): could not

CCN(CC)CCCC(C)Nc1ccnc2cc(Cl)ccc12 (centres unmarked) [chloroquine]
PARP and caspase-3 cleavage upon glucose deprivation, 2DG, or anisomycin treatment ([5]; chloroquine 10 μM, 24 h): robustly inhibited | reduction in EGFR levels caused by glucose deprivation, 2DG, or anisomycin treatment ([5]; in the presence of chloroquine, 24 h): dramatically inhibited

C=C(C)[C@H]1Cc2c(ccc3c2O[C@@H]2COc4cc(OC)c(OC)cc4[C@@H]2C3=O)O1 [rotenone]
apoptotic cell death [2]: rotenone-mediated apoptosis | EGFR levels [5]: robustly decreased EGFR levels in both dose- and time-dependent manners | JNK activation (P-JNK) [13]: significantly induced JNK activation in both dose- and time-dependent manners | cytoplasmic and mitochondrial ROS levels [8]: significant increases

OC[C@H]1O[C@H](O[C@H]2O[C@H](CO)[C@@H](O)[C@H](O)[C@H]2O)[C@H](O)[C@@H](O)[C@@H]1O [trehalose]
EGFR levels [5]: significantly induced EGFR degradation in a dose-dependent manner

O=C(O)CCC(=O)C(=O)O [α-ketoglutarate]
rescue from glucose deprivation-induced apoptosis ([2]; MPYR or AKG 7 mM, NAC 4 mM): rescue EGFR-mutant NSCLCs from glucose deprivation-induced apoptosis | recovery of ATP levels reduced by glucose deprivation [14]: significant recovery of ATP levels
